The text below walks through data of ChEMBL document CHEMBL1201862, “PubChem BioAssay data set” (2004).

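Test compounds were applied to cells in 96-well plates for 48 hours at 5 doses. GI50: concentration for 50% inhibition of growth.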 Active and inactive are the calls of the source. No stated cut-off is given here; in the data, active = GI50 up to about 1.1 µM and inactive = higher.

Test systems include KM12; IGROV-1; T47D; OVCAR-8; HCT-15; OVCAR-5; MDA-MB-231; U-251; SK-MEL-2; NCI-H460; MDA-MB-435; MOLT-4; HCT-116; EKVX; OVCAR-4; SNB-75; A498; SN12C; HOP-62.
Experiment in all cases: NCI anticancer screen, dose series, 48 h

Consider `COC1=CC(=O)c2c(cc(COP(=O)(N(C)CCBr)N(C)CCBr)n2C)C1=O`, for which the GI50 is 4.04 µM (inactive) in the experiment with KM12; 2.31 µM (inactive) with IGROV-1; 0.55 µM (active) in the experiment on T47D; 0.241 µM (active) in the experiment with OVCAR-8; 0.491 µM in the experiment on HCT-15; 0.583 µM (active) in the experiment on OVCAR-5. Also, the GI50 with MDA-MB-231 is 3.91 µM (inactive); with U-251, 0.0419 µM (active); with SK-MEL-2, 1.89 µM (inactive); with NCI-H460, 0.0582 µM (active); in the experiment with MDA-MB-435 it was 1.09 µM (active); in the experiment with MOLT-4, < 0.0173 µM (active). The GI50 is 0.0542 µM (active) with HCT-116; 2.03 µM (inactive) with EKVX; 5.32 µM (inactive) in the experiment with OVCAR-4; 0.102 µM (active) in the experiment on SNB-75; 1.97 µM (inactive) in the experiment on A498; < 0.0272 µM (active) in the experiment on SN12C. The GI50 in the experiment on HOP-62 is < 0.0322 µM (active).
As for `Cc1cc(S(=O)(=O)/N=C(\NN)Nc2ccc(Cl)cc2)c(S)cc1Cl`, the GI50 was 2.85 µM (inactive) in the experiment on KM12; 3.54 µM (inactive) with IGROV-1; 3.4 µM (inactive) with T47D; 12.4 µM (inactive) in the experiment on OVCAR-8; 1.14 µM in the experiment with HCT-15; 1.81 µM (inactive) with OVCAR-5. For the same compound, the GI50 was 20.4 µM (inactive) in the experiment with MDA-MB-231; 6.87 µM (inactive) in the experiment with U-251; 19.2 µM (inactive) with SK-MEL-2; 4.46 µM (inactive) in the experiment on NCI-H460; 8.02 µM (inactive) in the experiment with MDA-MB-435; 2.75 µM (inactive) with MOLT-4. Also, the GI50 in the experiment on HCT-116 is 3.03 µM (inactive); in the experiment with EKVX, 5.16 µM (inactive); with OVCAR-4, 13.2 µM (inactive); in the experiment on SNB-75, 6.49 µM (inactive); in the experiment with A498 it was 17.1 µM (inactive); in the experiment on SN12C, 22.8 µM (inactive). Also, in the experiment on HOP-62, the GI50 is 10.8 µM (inactive).
As to `O=c1c(-c2ccc(O)cc2)coc2cc(OC3OC(CO)C(O)C(O)C3O)cc(O)c12` (stereo not drawn), the GI50 in the experiment with KM12 is > 100 µM (inactive); with IGROV-1 it was > 10 µM (inactive); in the experiment with T47D it was > 10 µM (inactive); in the experiment with OVCAR-8, > 100 µM (inactive); in the experiment with HCT-15, more than 100 µM; in the experiment with OVCAR-5, > 10 µM (inactive). For the same compound, the GI50 in the experiment on MDA-MB-231 is > 100 µM (inactive); in the experiment with U-251 it was > 10 µM (inactive); in the experiment with SK-MEL-2, > 10 µM (inactive); with NCI-H460, 46.9 µM (inactive); in the experiment with MDA-MB-435, > 10 µM (inactive); in the experiment on MOLT-4, 43.1 µM (inactive). Further, the GI50 in the experiment with HCT-116 was > 100 µM (inactive); in the experiment with EKVX, 38.8 µM (inactive); in the experiment with OVCAR-4, > 10 µM (inactive); in the experiment with SNB-75, 35.7 µM (inactive); in the experiment on A498, > 100 µM (inactive); in the experiment with SN12C, > 100 µM (inactive). In addition, the GI50 in the experiment with HOP-62 was > 10 µM (inactive).
For `O=C(O[C@H]1CCN2C[C@H]3C[C@H](CN4C(=O)CCC[C@H]34)[C@@H]2C1)c1ccc(O)cc1`, the GI50 with KM12 is > 100 µM (inactive); with IGROV-1, > 100 µM (inactive); with T47D, > 100 µM (inactive); in the experiment with OVCAR-8, > 100 µM (inactive); with HCT-15, more than 100 µM; with OVCAR-5, > 100 µM (inactive). The GI50 in the experiment with MDA-MB-231, in the experiment with U-251, in the experiment on SK-MEL-2, in the experiment with NCI-H460, with MDA-MB-435 and in the experiment on HCT-116 was > 100 µM (inactive) each time. Also, the GI50 with EKVX, in the experiment on OVCAR-4, in the experiment on SNB-75, with A498, with SN12C and in the experiment with HOP-62 was > 100 µM (inactive) each time.
On to `C/C(=N/NC(=S)Nc1ccccc1Cl)c1ccccn1`, for which the GI50 with KM12 was 0.0705 µM (active); in the experiment on IGROV-1, < 0.0137 µM (active); in the experiment with T47D, < 0.0371 µM (active); in the experiment on OVCAR-8, 0.0206 µM (active); in the experiment on HCT-15, less than 0.0165 µM; in the experiment with OVCAR-5, < 0.0211 µM (active). The GI50 with MDA-MB-231 is < 0.0164 µM (active); in the experiment on U-251, 0.0418 µM (active); in the experiment with SK-MEL-2 it was 1.98 µM (inactive); with NCI-H460, 0.0382 µM (active); with MDA-MB-435, 0.665 µM (active); with MOLT-4, < 0.0109 µM (active). Further, the GI50 in the experiment on HCT-116 was < 0.0129 µM (active); in the experiment on EKVX, 0.098 µM (active); in the experiment with OVCAR-4, 0.249 µM (active); with SNB-75, 8.73 µM (inactive); in the experiment with A498, 1.46 µM (inactive); with SN12C, 0.129 µM (active). For the same compound, in the experiment with HOP-62, the GI50 is < 0.0415 µM (active).
Take `CC(=O)C1=C(C)N(c2ccc(C)cc2)C2(O)C3=C(C(=O)c4ccccc4C3=O)C(O)=CC12Cl` (stereo not drawn): the GI50 in the experiment on KM12 is 5.37 µM (inactive); in the experiment on IGROV-1 it was 11.1 µM (inactive); in the experiment with T47D, 26.7 µM (inactive); in the experiment on OVCAR-8 it was 14.1 µM (inactive); with HCT-15 it was 19.8 µM; with OVCAR-5 it was 25.5 µM (inactive). Moreover, the GI50 in the experiment on MDA-MB-231 was 31.8 µM (inactive); with U-251 it was 11.7 µM (inactive); in the experiment with SK-MEL-2, 8.53 µM (inactive); with NCI-H460, 20.9 µM (inactive); with MDA-MB-435, 3.79 µM (inactive); with MOLT-4 it was 26.7 µM (inactive). For the same compound, the GI50 is 30.8 µM (inactive) in the experiment with HCT-116; 54.1 µM (inactive) in the experiment on EKVX; 17.1 µM (inactive) in the experiment with OVCAR-4; 21.9 µM (inactive) in the experiment on SNB-75; 3.15 µM (inactive) with A498; 17 µM (inactive) in the experiment with SN12C. Moreover, the GI50 in the experiment on HOP-62 is 32.2 µM (inactive).
For the compound `N#Cc1nc(C#N)n(C(=O)c2ccccc2)c1NC(=O)c1ccccc1`, the GI50 with KM12 was > 100 µM (inactive); in the experiment on IGROV-1, > 100 µM (inactive); in the experiment with T47D it was > 100 µM (inactive); with OVCAR-8 it was > 100 µM (inactive); in the experiment on HCT-15, more than 100 µM; in the experiment with OVCAR-5, > 100 µM (inactive). The GI50 in the experiment on MDA-MB-231, in the experiment with U-251, in the experiment with SK-MEL-2, with NCI-H460, in the experiment with MDA-MB-435 and with MOLT-4 was > 100 µM (inactive) throughout. The GI50 in the experiment on HCT-116, in the experiment on EKVX, in the experiment with OVCAR-4, in the experiment on SNB-75, with A498 and in the experiment on SN12C was > 100 µM (inactive) throughout. For the same compound, the GI50 in the experiment on HOP-62 is > 100 µM (inactive).
Take `C#CCOC(=O)C(N)CCCNC(=N)N` (stereo not drawn): the GI50 in the experiment on KM12 is > 100 µM (inactive); in the experiment on IGROV-1 it was > 100 µM (inactive); in the experiment on T47D, > 100 µM (inactive); in the experiment on OVCAR-8 it was > 100 µM (inactive); with HCT-15, more than 100 µM; with OVCAR-5, > 100 µM (inactive). Besides, the GI50 with MDA-MB-231, in the experiment on U-251, in the experiment with SK-MEL-2, with NCI-H460, with MDA-MB-435 and in the experiment with MOLT-4 was > 100 µM (inactive) in each case. In addition, the GI50 with HCT-116, in the experiment with EKVX, with OVCAR-4, with SNB-75, in the experiment on A498 and in the experiment on SN12C was > 100 µM (inactive) in each case. Moreover, the GI50 in the experiment on HOP-62 was > 100 µM (inactive).
As for `COc1cc(OC2OC(CO)C(O)C(O)C2O)c2c(c1)O[C@@H]1[C@H](O)Oc3cc(OC)c(OC)cc3[C@]1(O)C2=O` (stereo partly drawn), the GI50 in the experiment on KM12 was > 25 µM (inactive); in the experiment with IGROV-1, > 25 µM (inactive); in the experiment with T47D it was > 25 µM (inactive); with OVCAR-8, > 25 µM (inactive); in the experiment with HCT-15, more than 25 µM; in the experiment with OVCAR-5, > 25 µM (inactive). Moreover, the GI50 in the experiment with MDA-MB-231, in the experiment on U-251, in the experiment on SK-MEL-2, in the experiment with NCI-H460, in the experiment on MDA-MB-435 and with MOLT-4 was > 25 µM (inactive) in each case. In addition, the GI50 in the experiment with HCT-116, with EKVX, in the experiment on OVCAR-4, with SNB-75, in the experiment on A498 and with SN12C was > 25 µM (inactive) each time. In the experiment on HOP-62, the GI50 is > 25 µM (inactive).
Take `O=S(=O)(/N=c1\[nH]c(-c2cc(O)c(O)c(O)c2)cs1)c1ccc(Cl)cc1Cl`: the GI50 is 15.2 µM (inactive) in the experiment on KM12; 20.8 µM (inactive) in the experiment with IGROV-1; 15.3 µM (inactive) in the experiment with T47D; 0.034 µM (active) in the experiment on OVCAR-8; 17.2 µM in the experiment with HCT-15; 18.2 µM (inactive) with OVCAR-5. In addition, the GI50 is 21.3 µM (inactive) with MDA-MB-231; 19 µM (inactive) in the experiment with U-251; 43.8 µM (inactive) in the experiment with SK-MEL-2; 18.7 µM (inactive) in the experiment with NCI-H460; 22.2 µM (inactive) in the experiment on MDA-MB-435; 20.7 µM (inactive) in the experiment with MOLT-4. Further, the GI50 with HCT-116 is 19 µM (inactive); with EKVX, 18.1 µM (inactive); with OVCAR-4 it was 22.1 µM (inactive); in the experiment with SNB-75, 25.7 µM (inactive); in the experiment on A498 it was 53.1 µM (inactive); in the experiment with SN12C, 18.7 µM (inactive). The GI50 in the experiment with HOP-62 was 17.9 µM (inactive).
`NNC(=O)c1ccccc1Nc1nc(-c2cccs2)nc2ccc(Br)cc12`: the GI50 in the experiment on KM12 was 67.5 µM (inactive); in the experiment with IGROV-1, > 100 µM (inactive); in the experiment on T47D, 47.8 µM (inactive); with OVCAR-8, 55 µM (inactive); with HCT-15, 14.7 µM; in the experiment on OVCAR-5, > 100 µM (inactive). Besides, the GI50 with MDA-MB-231 was > 100 µM (inactive); with U-251 it was 23.2 µM (inactive); in the experiment on SK-MEL-2 it was > 100 µM (inactive); in the experiment on NCI-H460, 87.3 µM (inactive); in the experiment on MDA-MB-435, 77.4 µM (inactive); in the experiment on MOLT-4, > 100 µM (inactive). The GI50 with HCT-116 is 70 µM (inactive); in the experiment on EKVX, > 100 µM (inactive); in the experiment on OVCAR-4 it was 6.7 µM (inactive); in the experiment with SNB-75, 45.4 µM (inactive); in the experiment on A498, > 100 µM (inactive); with SN12C, 37.2 µM (inactive). Further, the GI50 with HOP-62 is > 100 µM (inactive).
